Results as given in patent publication US7998940B2, “Aptamers to von Willebrand factor and their use as thrombotic disease therapeutics” (Archemix Corp., priority 2004, dated 2011).
Oligonucleotides are written 5' to 3', each unit as a sugar letter and its base; * is a phosphorothioate linkage, no mark a phosphodiester; rarer units and linkages stand in square brackets, end groups in braces. Plain capitals give the bases only. [invdT] = inverted (3'-3') thymidine; d = 2'-deoxy (DNA); m = 2'-O-methyl

Tested on: full length human vWF (SEQ ID NO 7)
Assay: dot blot KD determination and extent of binding, full length human vWF;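 note: dot blot binding of aptamers to full length human vWF across a protein titration, incubated 30 minutes at room temperature in 1x DPBS with BSA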
Details: Phase 1 modification; for % binding @ 100 nM vWF: extent of aptamer binding at 100 nM full length human vWF; for Kd: full length human vWF, dot blot, 8 point protein titration, read-out: KD

| Substance | % binding @ 100 nM vWF | Kd |
| --- | --- | --- |
| ARC1206: ARC1172 with one residue replaced by 2'-O methyl residue (DNA dGdGdCdGdTdGdCdAdGdTdGdCmCdTdTdCdGdGdCdCdGdTdGdCdGdGdTdGdCdCdTdCdCdGdTdCdAdCdGdCdC[invdT]; aptamer) | 50% | 2 nM |
| ARC1207: ARC1172 with one residue replaced by 2'-O methyl residue (DNA dGdGdCdGdTdGdCdAdGdTdGdCdCmUdTdCdGdGdCdCdGdTdGdCdGdGdTdGdCdCdTdCdCdGdTdCdAdCdGdCdC[invdT]; aptamer) | 54% | 2 nM |
| ARC1208: ARC1172 with one residue replaced by 2'-O methyl residue (DNA dGdGdCdGdTdGdCdAdGdTdGdCdCdTmUdCdGdGdCdCdGdTdGdCdGdGdTdGdCdCdTdCdCdGdTdCdAdCdGdCdC[invdT]; aptamer) | 45% | 2 nM |
| ARC1209: ARC1172 with one residue replaced by 2'-O methyl residue (DNA dGdGdCdGdTdGdCdAdGdTdGdCdCdTdTmCdGdGdCdCdGdTdGdCdGdGdTdGdCdCdTdCdCdGdTdCdAdCdGdCdC[invdT]; aptamer) | 44% | 2 nM |
| ARC1210: ARC1172 with one residue replaced by 2'-O methyl residue (DNA dGdGdCdGdTdGdCdAdGdTdGdCdCdTdTdCmGdGdCdCdGdTdGdCdGdGdTdGdCdCdTdCdCdGdTdCdAdCdGdCdC[invdT]; aptamer) | 49% | 2 nM |
| ARC1211: ARC1172 with one residue replaced by 2'-O methyl residue (DNA dGdGdCdGdTdGdCdAdGdTdGdCdCdTdTdCdGmGdCdCdGdTdGdCdGdGdTdGdCdCdTdCdCdGdTdCdAdCdGdCdC[invdT]; aptamer) | 47% | 2 nM |
| ARC1212: ARC1172 with one residue replaced by 2'-O methyl residue (DNA dGdGdCdGdTdGdCdAdGdTdGdCdCdTdTdCdGdGmCdCdGdTdGdCdGdGdTdGdCdCdTdCdCdGdTdCdAdCdGdCdC[invdT]; aptamer) | 49% | 2 nM |
| ARC1213: ARC1172 with one residue replaced by 2'-O methyl residue (DNA dGdGdCdGdTdGdCdAdGdTdGdCdCdTdTdCdGdGdCmCdGdTdGdCdGdGdTdGdCdCdTdCdCdGdTdCdAdCdGdCdC[invdT]; aptamer) | 43% | 6 nM |
| ARC1214: ARC1172 with one residue replaced by 2'-O methyl residue (DNA dGdGdCdGdTdGdCdAdGdTdGdCdCdTdTdCdGdGdCdCmGdTdGdCdGdGdTdGdCdCdTdCdCdGdTdCdAdCdGdCdC[invdT]; aptamer) | 39% | 3 nM |
| ARC1215: ARC1172 with one residue replaced by 2'-O methyl residue (DNA dGdGdCdGdTdGdCdAdGdTdGdCdCdTdTdCdGdGdCdCdGmUdGdCdGdGdTdGdCdCdTdCdCdGdTdCdAdCdGdCdC[invdT]; aptamer) | 2% | 3 nM |
| ARC1216: ARC1172 with one residue replaced by 2'-O methyl residue (DNA dGdGdCdGdTdGdCdAdGdTdGdCdCdTdTdCdGdGdCdCdGdTmGdCdGdGdTdGdCdCdTdCdCdGdTdCdAdCdGdCdC[invdT]; aptamer) | 40% | 0.6 nM |
| ARC1217: ARC1172 with one residue replaced by 2'-O methyl residue (DNA dGdGdCdGdTdGdCdAdGdTdGdCdCdTdTdCdGdGdCdCdGdTdGmCdGdGdTdGdCdCdTdCdCdGdTdCdAdCdGdCdC[invdT]; aptamer) | 18% | 14 nM |
| ARC1218: ARC1172 with one residue replaced by 2'-O methyl residue (DNA dGdGdCdGdTdGdCdAdGdTdGdCdCdTdTdCdGdGdCdCdGdTdGdCmGdGdTdGdCdCdTdCdCdGdTdCdAdCdGdCdC[invdT]; aptamer) | 2% | 32 nM |
| ARC1219: ARC1172 with one residue replaced by 2'-O methyl residue (DNA dGdGdCdGdTdGdCdAdGdTdGdCdCdTdTdCdGdGdCdCdGdTdGdCdGmGdTdGdCdCdTdCdCdGdTdCdAdCdGdCdC[invdT]; aptamer) | 33% | 3 nM |
| ARC1220: ARC1172 with one residue replaced by 2'-O methyl residue (dGdGdCdGdTdGdCdAdGdTdGdCdCdTdTdCdGdGdCdCdGdTdGdCdGdGmUdGdCdCdTdCdCdGdTdCdAdCdGdCdC[invdT]; aptamer) | 17% | 11 nM |
| ARC1221: ARC1172 with one residue replaced by 2'-O methyl residue (dGdGdCdGdTdGdCdAdGdTdGdCdCdTdTdCdGdGdCdCdGdTdGdCdGdGdTmGdCdCdTdCdCdGdTdCdAdCdGdCdC[invdT]; aptamer) | 43% | 1 nM |

| Substance | % binding @ 100 nM vWF | Kd |
| --- | --- | --- |
| ARC1222: ARC1172 with one residue replaced by 2'-O methyl residue (dGdGdCdGdTdGdCdAdGdTdGdCdCdTdTdCdGdGdCdCdGdTdGdCdGdGdTdGmCdCdTdCdCdGdTdCdAdCdGdCdC[invdT]; aptamer) | 40% | 0.9 nM |
| ARC1223: ARC1172 with one residue replaced by 2'-O methyl residue (dGdGdCdGdTdGdCdAdGdTdGdCdCdTdTdCdGdGdCdCdGdTdGdCdGdGdTdGdCmCdTdCdCdGdTdCdAdCdGdCdC[invdT]; aptamer) | 26% | 36 nM |
| ARC1224: ARC1172 with one residue replaced by 2'-O methyl residue (dGdGdCdGdTdGdCdAdGdTdGdCdCdTdTdCdGdGdCdCdGdTdGdCdGdGdTdGdCdCmUdCdCdGdTdCdAdCdGdCdC[invdT]; aptamer) | 47% | 0.5 nM |
| ARC1225: ARC1172 with one residue replaced by 2'-O methyl residue (dGdGdCdGdTdGdCdAdGdTdGdCdCdTdTdCdGdGdCdCdGdTdGdCdGdGdTdGdCdCdTmCdCdGdTdCdAdCdGdCdC[invdT]; aptamer) | 16% | 11 nM |
| ARC1226: ARC1172 with one residue replaced by 2'-O methyl residue (dGdGdCdGdTdGdCdAdGdTdGdCdCdTdTdCdGdGdCdCdGdTdGdCdGdGdTdGdCdCdTdCmCdGdTdCdAdCdGdCdC[invdT]; aptamer) | 25% | 12 nM |
| ARC1227: ARC1172 with one residue replaced by 2'-O methyl residue (dGdGdCdGdTdGdCdAdGdTdGdCdCdTdTdCdGdGdCdCdGdTdGdCdGdGdTdGdCdCdTdCdCmGdTdCdAdCdGdCdC[invdT]; aptamer) | 40% | 3 nM |
| ARC1228: ARC1172 with one residue replaced by 2'-O methyl residue (dGdGdCdGdTdGdCdAdGdTdGdCdCdTdTdCdGdGdCdCdGdTdGdCdGdGdTdGdCdCdTdCdCdGmUdCdAdCdGdCdC[invdT]; aptamer) | 43% | 2 nM |
| ARC1229: ARC1172 with one residue replaced by 2'-O methyl residue (dGdGdCdGdTdGdCdAdGdTdGdCdCdTdTdCdGdGdCdCdGdTdGdCdGdGdTdGdCdCdTdCdCdGdTmCdAdCdGdCdC[invdT]; aptamer) | 37% | 5 nM |
| ARC1230: ARC1172 with one residue replaced by 2'-O methyl residue (dGdGdCdGdTdGdCdAdGdTdGdCdCdTdTdCdGdGdCdCdGdTdGdCdGdGdTdGdCdCdTdCdCdGdTdCmAdCdGdCdC[invdT]; aptamer) | 46% | 3 nM |
| ARC1231: ARC1172 with one residue replaced by 2'-O methyl residue (dGdGdCdGdTdGdCdAdGdTdGdCdCdTdTdCdGdGdCdCdGdTdGdCdGdGdTdGdCdCdTdCdCdGdTdCdAmCdGdCdC[invdT]; aptamer) | 50% | 1 nM |
| ARC1232: ARC1172 with one residue replaced by 2'-O methyl residue (dGdGdCdGdTdGdCdAdGdTdGdCdCdTdTdCdGdGdCdCdGdTdGdCdGdGdTdGdCdCdTdCdCdGdTdCdAdCmGdCdC[invdT]; aptamer) | 51% | 1 nM |
| ARC1233: ARC1172 with one residue replaced by 2'-O methyl residue (dGdGdCdGdTdGdCdAdGdTdGdCdCdTdTdCdGdGdCdCdGdTdGdCdGdGdTdGdCdCdTdCdCdGdTdCdAdCdGmCdC[invdT]; aptamer) | 39% | 2 nM |
| ARC1234: ARC1172 with one residue replaced by 2'-O methyl residue (dGdGdCdGdTdGdCdAdGdTdGdCdCdTdTdCdGdGdCdCdGdTdGdCdGdGdTdGdCdCdTdCdCdGdTdCdAdCdGdCmC[invdT]; aptamer) | 42% | 2 nM |
| ARC1235: ARC1172 with composite 2'-O methyl replacements in the stem regions (mGmGdCmGdTmGdCdAdGdTdGdCdCdTdTdCdGdGdCdCdGdTdGdCdGdGdTdGdCdCdTdCdCdGdTdCmAdCmGdCdC[invdT]; aptamer) | 23% | 13 nM |
| ARC1236: ARC1172 with composite 2'-O methyl replacements in the stem regions (dGdGmCdGmUdGdCdAdGdTdGdCdCdTdTdCdGdGdCdCdGdTdGdCdGdGdTdGdCdCdTdCdCdGdTmCdAmCdGmCmC[invdT]; aptamer) | 32% | 3 nM |
| ARC1237: ARC1172 with composite 2'-O methyl replacements in the stem regions (mGmGmCmGmUmGdCdAdGdTdGdCdCdTdTdCdGdGdCdCdGdTdGdCdGdGdTdGdCdCdTdCdCdGdTmCmAmCmGmCmC[invdT]; aptamer) | 9% | 41 nM |
